One molecule from publication PMC3169411, “Structure of aldose reductase from Giardia lamblia” (Acta Crystallographica Section F: Structural Biology and …, 2011) can be followed below.

In the assay the target is T1, G. lamblia aldose reductase (Giardia duodenalis, UniProt A8BGX6).
T1 construct: gene GL50803_007260; full-length; E. coli BL21(DE3); observed Ser0-Asp313; dimer
T1 sequence (A8BGX6 1-313): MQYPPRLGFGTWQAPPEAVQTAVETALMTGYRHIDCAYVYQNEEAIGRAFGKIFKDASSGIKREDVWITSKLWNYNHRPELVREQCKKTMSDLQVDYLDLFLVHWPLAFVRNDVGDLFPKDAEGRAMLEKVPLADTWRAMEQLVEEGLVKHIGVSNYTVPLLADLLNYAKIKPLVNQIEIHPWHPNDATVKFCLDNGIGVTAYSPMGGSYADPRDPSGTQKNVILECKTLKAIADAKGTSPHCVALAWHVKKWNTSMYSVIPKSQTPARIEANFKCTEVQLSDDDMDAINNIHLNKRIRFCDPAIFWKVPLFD
The experiment in a line: X-ray crystallography, […] Å. The class given is binding. To be noted: co-purified (none added); crystals from 20% PEG 3350, 200 mM sodium formate, 100 mM Bis-Tris propane; cofactor site, Arg269 and His242.

With `NC(=O)c1ccc[n+]([C@@H]2O[C@H](COP(=O)(O)OP(=O)(O)OC[C@H]3O[C@@H](n4cnc5c(N)ncnc54)[C@H](OP(=O)(O)O)[C@@H]3O)[C@@H](O)[C@H]2O)c1` [NADP^+], the “X-ray crystallography, 1.75 Å” value was “One NADP^+ molecule and one ethylene glycol molecule were modelled in each chain”.
